Test results published in patent EP4664463A1, “COMPUTER-IMPLEMENTED METHOD FOR OLFACTORY PROPERTY PREDICTION” (Givaudan SA, priority 2024, dated 2025).
Substitutions are numbered along the chain they refer to. Where two headings read alike, the source gives them in different places. Values belong to the compound of their own block, whether it stands above or below them.

Tests used:
OR56A4 = target: T1, OR56A4 (Homo sapiens, UniProt Q8NGH8); test: cell-based; type: cell-based; conditions: wild-type
T1 construct: expressed in transfected cells; host or cells: HEK293T stably expressing human RTP1S(V227I) and RTP2(L220R)
T1 sequence (Q8NGH8 1-313): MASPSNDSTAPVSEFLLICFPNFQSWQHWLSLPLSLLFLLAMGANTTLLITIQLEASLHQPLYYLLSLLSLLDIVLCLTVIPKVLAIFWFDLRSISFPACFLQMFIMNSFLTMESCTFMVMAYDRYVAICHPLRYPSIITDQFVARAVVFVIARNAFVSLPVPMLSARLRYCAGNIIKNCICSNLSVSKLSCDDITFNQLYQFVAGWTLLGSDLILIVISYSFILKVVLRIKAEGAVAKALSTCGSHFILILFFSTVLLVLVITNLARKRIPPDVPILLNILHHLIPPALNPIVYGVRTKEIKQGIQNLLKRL
Excerpt: (§1) To create an expression plasmid, an OR coding sequence fused at the end of TM7 to the desired C-terminus sequence was synthesized by a DNA synthesis service provider (BioCat GmbH, Germany) and inserted into pcDNA3.1(+) (Invitrogen, MA, USA) downstream of the CMV promoter sequence (SEQ ID NO: 82) using BamHI and Notl restriction sites. All the synthetic OR nucleotide sequences described below in Examples 1-15 further contained at their N-terminus a nucleotide sequence encoding a signal peptide (mmLucy-FLAG-rho, SeQ ID NOs: 80, 81) and at the C-terminus the bgh terminator sequence (SEQ ID NO: 83). All the OR expression plasmids also contain a Kozak sequence (GCCACC) between the BamHI restriction site and the start codon of the signal peptide. These plasmids thus contain a constitutively expressed OR gene.
Activation of OR56A4 by acids of different chain length was further tested. […] Replacing the wild-type with the C-terminal sequence of the functional OR51 E1 did reduce activity. However, using the optimized sequence form Examples 1-5 led to a strong signal and much lower detection threshold upon addition of all three acids.

OR2M2 = test: Activation of modified OR2M2 by sulfur compounds in presence of copper (luciferase); type: cell-based, human; conditions: modified C-terminus
Excerpt: The most pungent odorant in human axillary sweat with an ODT of 1 picogram / L air is 3-methyl-3-sulfanyl-hexanol (also known as 3-methyl-3-mercapto-hexanol) (Natsch et al. identification of Odoriferous Sulfanylalkanols in Human Axilla Secretions and Their Formation through Cleavage of Cysteine Precursors by a C-S Lyase Isolated from Axilla bacteria. […] 2004; 1:1058-1072). So far, no OR has been described which can selectively detect this key odorant leading to undesired axilla odor in human subjects. By screening a library of receptor variants with the C-terminal sequence SEQ ID NO: 86 in presence of copper against a library of 52 sulfur compounds (see example 5), a hitherto orphan receptor, OR2M2, was identified, which is activated by 3-methyl-3-mercapto-hexanol and closely related chemicals, but not by other sulfur odorants (Figure 19).

OR5B12 [1] = test: cell-based; type: cell-based, human
Excerpt: as §1

OR5B12 [2] = target: T2, OR5B12 (Homo sapiens, UniProt Q96R08); test: cell-based; type: cell-based
T2 construct: expressed in transfected cells; host or cells: HEK293T cells stably expressing human RTP1S (V227I) and RTP2 (L220R)
T2 sequence (Q96R08 with tags, fused parts or gaps): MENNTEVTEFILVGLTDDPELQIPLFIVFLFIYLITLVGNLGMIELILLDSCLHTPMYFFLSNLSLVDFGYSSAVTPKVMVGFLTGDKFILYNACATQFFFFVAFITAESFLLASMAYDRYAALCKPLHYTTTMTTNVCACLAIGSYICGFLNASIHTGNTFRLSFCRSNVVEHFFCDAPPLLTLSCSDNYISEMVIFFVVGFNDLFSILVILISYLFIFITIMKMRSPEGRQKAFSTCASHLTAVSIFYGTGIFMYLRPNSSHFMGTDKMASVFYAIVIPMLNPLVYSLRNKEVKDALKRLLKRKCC
Excerpt: as §1

OR5B12 [3] = target: T3, OR5B12 (Homo sapiens, UniProt Q96R08); test: cell-based; type: cell-based; conditions: wild-type
T3 construct: expressed in transfected cells; host or cells: HEK293T cells stably expressing human RTP1S (V227I) and RTP2 (L220R)
T3 sequence (Q96R08 1-314): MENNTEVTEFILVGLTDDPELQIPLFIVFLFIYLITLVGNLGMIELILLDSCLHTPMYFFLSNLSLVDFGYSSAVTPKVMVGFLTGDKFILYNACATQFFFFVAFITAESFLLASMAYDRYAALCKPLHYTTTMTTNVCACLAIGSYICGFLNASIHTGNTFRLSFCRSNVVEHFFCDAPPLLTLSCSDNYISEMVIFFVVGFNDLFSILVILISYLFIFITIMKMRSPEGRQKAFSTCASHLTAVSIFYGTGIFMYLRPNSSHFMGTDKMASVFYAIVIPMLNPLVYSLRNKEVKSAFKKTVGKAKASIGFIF
Excerpt: as §1

OR8K3 [4] = target: T4, OR8K3 (Homo sapiens, UniProt Q8NH51); test: cell-based; type: cell-based
T4 construct: expressed in transfected cells; host or cells: HEK293T cells stably expressing human RTP1S (V227I) and RTP2 (L220R)
T4 sequence (Q8NH51 1-312): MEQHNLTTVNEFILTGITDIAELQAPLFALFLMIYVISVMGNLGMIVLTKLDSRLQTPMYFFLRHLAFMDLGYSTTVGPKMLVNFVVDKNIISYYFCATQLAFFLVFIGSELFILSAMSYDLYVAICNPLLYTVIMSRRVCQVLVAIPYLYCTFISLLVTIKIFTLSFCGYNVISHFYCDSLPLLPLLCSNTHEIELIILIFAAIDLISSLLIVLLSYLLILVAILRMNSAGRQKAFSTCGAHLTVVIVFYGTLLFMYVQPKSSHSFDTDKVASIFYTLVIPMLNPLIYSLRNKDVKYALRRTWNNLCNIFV
Excerpt: as §1
(§2) Thus, using the improved sensitivity of the assay provided by the modified variant, activation of OR8K3 by a broader set of mint-smelling molecules can be detected.
(§3) Knowing the importance of the C-terminal sequence for proper expression as observed in the previous examples, an obvious way to improve expression might be just to provide a hybrid receptor whereby the C-terminal domain in a non-functional or poorly functional receptor is replaced by the C-terminal domain of a functional receptor. […] Thus the C-terminal sequence of OR8K3 was replaced with the C-terminal sequence of the ambrettolide-receptor OR1N2 or the musk receptor OR5AN1. […] Thus the improvement achieved with the modified C-terminal sequences of this disclosure cannot be achieved by simply generating chimeric receptors combining a functional C-terminal domain of a functional receptor with a poorly expressed receptor.

OR8K3 [5] = target: T5, OR8K3 (Homo sapiens, UniProt Q8NH51, D295E/Y298D); test: cell-based; type: cell-based; conditions: OR8K3 with SEQ ID NO: 86
T5 construct: expressed in transfected cells; host or cells: HEK293T cells stably expressing human RTP1S (V227I) and RTP2 (L220R)
T5 sequence (Q8NH51 with tags, fused parts or gaps D295E/Y298D): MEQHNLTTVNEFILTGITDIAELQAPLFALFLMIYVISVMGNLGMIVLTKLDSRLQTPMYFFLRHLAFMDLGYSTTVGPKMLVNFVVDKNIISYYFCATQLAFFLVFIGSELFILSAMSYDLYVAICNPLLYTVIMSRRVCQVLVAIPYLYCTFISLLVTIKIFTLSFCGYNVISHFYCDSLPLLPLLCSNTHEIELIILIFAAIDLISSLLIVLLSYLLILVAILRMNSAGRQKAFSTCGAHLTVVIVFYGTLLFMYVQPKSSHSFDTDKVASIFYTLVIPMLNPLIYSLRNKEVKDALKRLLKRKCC
Excerpt: as §1, §2, §3

OR10J5 [6] = target: T6, OR10J5 (Homo sapiens, UniProt Q8NHC4); test: cell-based; type: cell-based; conditions: for EC50: changed C-term SEQ ID NO: 86, read-out: Potency EC50
T6 construct: expressed in transfected cells; host or cells: HEK293T cells stably expressing human RTP1S (V227I) and RTP2 (L220R)
T6 sequence (Q8NHC4 with tags, fused parts or gaps): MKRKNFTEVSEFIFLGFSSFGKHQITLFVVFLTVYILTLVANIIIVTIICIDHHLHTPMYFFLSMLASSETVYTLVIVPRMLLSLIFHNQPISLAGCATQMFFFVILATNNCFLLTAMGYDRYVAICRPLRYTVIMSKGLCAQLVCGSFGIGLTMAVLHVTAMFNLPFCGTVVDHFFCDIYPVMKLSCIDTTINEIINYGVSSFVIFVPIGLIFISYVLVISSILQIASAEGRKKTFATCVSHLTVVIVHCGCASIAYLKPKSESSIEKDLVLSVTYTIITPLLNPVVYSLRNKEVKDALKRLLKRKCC
Excerpt: as §1

OR10J5 [7] = test: cell-based; type: cell-based, human
Excerpt: as §1

OR10J5 [8] = target: T7, OR10J5 (Homo sapiens, UniProt Q8NHC4); test: cell-based; type: cell-based; conditions: for EC50: wild-type, read-out: Potency EC50
T7 construct: expressed in transfected cells; host or cells: HEK293T cells stably expressing human RTP1S (V227I) and RTP2 (L220R)
T7 sequence (Q8NHC4 1-309): T6 sequence (Q8NHC4 with tags, fused parts or gaps) with K301C, L303V, L304V, K305G, K307N, C308I, C309S
Excerpt: as §1

Compound: CCCCCCCCC(=O)O [nonanoic acid]
activation of wild-type OR56A4 (OR56A4): not

activation of OR2M2 (OR2M2): activated
Compound: CC1=CCC(C(C)(C)S)CC1 (stereo not shown) [1-p-Menthene-8-thiol]

activation of wild-type OR56A4 (OR56A4): activated at high concentration
Compound: CCCCCCCCCC(=O)O [decanoic acid]

Compound: CCCCCC1C(=O)CCC1CC(=O)OC (stereo not shown) [Hedione HC]
Comments on efficacy (OR5B12 [1]): 4-fold lower maximal induction for wild-type | Fold-improvement potency (OR5B12 [1]): 3.8 | Fold-improvement threshold (OR5B12 [1]): 11 | EC50 (OR5B12 [2]; changed C-term SEQ ID NO: 86, read-out: Potency EC50): 18.3 µM | Detection threshold; concentration for 2-fold induction (OR5B12 [2]; changed C-term. SEQ ID NO: 86): 8.8 µM | Detection threshold; concentration for 2-fold induction (OR5B12 [3]): 96 µM | EC50 (OR5B12 [3]; read-out: Potency EC50): 69 µM

Detection threshold; concentration for 2-fold induction (OR8K3 [4]): > 316 µM
Compound: CC(C)[C@@H]1CC[C@@H](C)CC1=O [menthone]
activation of modified receptor variant (OR8K3 [5]): also activating the receptor, although with a lower potency

Detection threshold; concentration for 2-fold induction (OR10J5 [6]): 5.64 µM | EC50 (OR10J5 [6]): 6.2 µM | EC50 (OR10J5 [8]): > 31 µM
Compound: Cc1cc(CC(C)C)ccc1CCC=O [Nympheal, 3-(4-isobutyl-2-methylphenyl)propanal]
Comments on efficacy (OR10J5 [7]): Only 1.8-fold induction for WT, but 5.5-fold for changed C-terminus | Fold-improvement potency (OR10J5 [7]): >>6 | Fold-improvement threshold (OR10J5 [7]): >>6 | Detection threshold; concentration for 2-fold induction (OR10J5 [8]): n.i. (>31 µM, at cytotoxic dose)

Detection threshold; concentration for 2-fold induction (OR10J5 [6]): 0.65 µM | EC50 (OR10J5 [6]): 20 µM | Detection threshold; concentration for 2-fold induction (OR10J5 [8]): 7.42 µM | EC50 (OR10J5 [8]): 46 µM
Compound: C/C(=C\CCC=O)CCCC(C)(C)O [Mahonial, (4E)-9-hydroxy-5,9-dimethyl-4-Decenal]
Fold-improvement potency (OR10J5 [7]): 2.3 | Fold-improvement threshold (OR10J5 [7]): 11.5
